From patent US11415579B2, “Assay for measuring a rate of reaction between a target and a ligand candidate” (Imperial College Innovations Ltd., priority 2016, dated 2022)

Tests used:
[1] = biological target: T1, Cdk2(S181C) (C177A) (Homo sapiens, UniProt P24941, C177A/S181C); test: Kinetic thiol consumption assay with Cdk2 mutant S181C; assay type: binding; set-up: key to Rate enhancement, Cdk2 S181C: rate constant with Cdk2 ÷ rate constant with model thiol (fold); settings: additional mutation C177A; for Rate constant with Cdk2 S181C: Protein: Cdk2, cysteine position S181C, in h^-1
T1 construct: poly-histidine; made in house; host or cells: E. coli
Summary of the method: (§1)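 5 μM thiol, degassed phosphate pH 8, 2% v/v immobilized TCEP beads; 1 h RT; fluorescence ex 380/em 470 nm; normalized vs DMSO/thiol-only; first-order exponential decay fit → rate constant; Cdk2 k / model-thiol k = rate enhancement per acrylamide.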

[2] = biological target: T2, Cdk2(C177A, F80C) (Homo sapiens, UniProt P24941, C177A/F80C); test: Kinetic thiol consumption assay with Cdk2 mutant F80C, incl. kobs versus concentration (Kd, k2); assay type: binding; set-up: key to Rate enhancement, Cdk2 F80C: Cdk2 rate constant divided by model-thiol rate constant; settings: additional mutation C177A; for Rate constant with Cdk2 F80C: Protein: Cdk2, cysteine position F80C, in h^-1
T2 construct: poly-histidine; made in house; host or cells: E. coli
Summary of the method: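 His-tagged Cdk2(C177A/F80C) from E. coli or model thiol, 5 μM in degassed phosphate buffer pH 8 with TCEP beads, reacted with acrylamide ligands; fluorescence (ex/em 380/470 nm) normalized to DMSO control and fitted to first-order decay for kobs. Kd and k2 obtained from hyperbolic fit of kobs versus ligand concentration.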

[3] = biological target: T3, Cdk2(S276C) (C177A) (Homo sapiens, UniProt P24941, C177A/S276C); test: Kinetic thiol consumption assay with Cdk2 mutant S276C; assay type: binding; set-up: key to Rate enhancement, Cdk2 S276C: rate constant with Cdk2 ÷ rate constant with model thiol (fold); settings: additional mutation C177A; for Rate constant with Cdk2 S276C: Protein: Cdk2, cysteine position S276C, in h^-1
T3 construct: poly-histidine; made in house; host or cells: E. coli
Summary of the method: as §1

[4] = biological target: T4, human cyclin-dependent kinase 2 (Cdk2) (Homo sapiens, UniProt P24941); test: Kinetic thiol consumption assay with wild type Cdk2 (C177); assay type: binding; set-up: key to Rate enhancement, Cdk2 WT: k(Cdk2) divided by k(model thiol); Rate constant with Cdk2 (k(Cdk2)): unit not given here; settings: for Rate constant with Cdk2 (k(Cdk2)): 500 μM ligand, 5 μM thiol, phosphate buffer pH 8; for Rate enhancement, Cdk2 WT: no additional mutations; for Rate constant with Cdk2 WT: Protein: Cdk2, cysteine position WT, in h^-1; for k(Cdk2)/k(Cdk2_mut) rate enhancement: model thiol Cdk2[C177A, F80C, K278C]; for k(Cdk2)/k(GSH) rate enhancement: model thiol glutathione
T4 construct: poly-histidine; made in house; host or cells: E. coli
Summary of the method: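 Thiol 5 μM (Cdk2 or model thiol), degassed phosphate buffer pH 8, TCEP beads 2% v/v. Plates incubated 1 h RT, ex/em 380/470 nm. First-order decay fit → rate constant; ratio Cdk2/model thiol = rate enhancement.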

[5] = biological target: T5, Cdk2(R122C) (C177A) (Homo sapiens, UniProt P24941, C177A/R122C); test: Kinetic thiol consumption assay with Cdk2 mutant R122C; assay type: binding; set-up: key to Rate enhancement, Cdk2 R122C: rate constant with Cdk2 ÷ rate constant with model thiol (fold); settings: additional mutation C177A; for Rate constant with Cdk2 R122C: Protein: Cdk2, cysteine position R122C, in h-1
T5 construct: poly-histidine; made in house; host or cells: E. coli
Summary of the method: as §1

[6] = biological target: T6, Cdk2(T182C) (C177A) (Homo sapiens, UniProt P24941, C177A/T182C); test: Kinetic thiol consumption assay with Cdk2 mutant T182C; assay type: binding; set-up: key to Rate enhancement, Cdk2 T182C: rate constant with Cdk2 ÷ rate constant with model thiol (fold); settings: additional mutation C177A; for Rate constant with Cdk2 T182C: Protein: Cdk2, cysteine position T182C, in h^-1
T6 construct: poly-histidine; made in house; host or cells: E. coli
Summary of the method: as §1

[7] = biological target: T7, Cdk2(H71C) (C177A) (Homo sapiens, UniProt P24941, C177A/H71C); test: Kinetic thiol consumption assay with Cdk2 mutant H71C; assay type: binding; set-up: key to Rate enhancement, Cdk2 H71C: rate constant with Cdk2 ÷ rate constant with model thiol (fold); settings: additional mutation C177A; for Rate constant with Cdk2 H71C: Protein: Cdk2, cysteine position H71C, in h^-1
T7 construct: poly-histidine; made in house; host or cells: E. coli
Summary of the method: as §1

[8] = biological target: T8, Cdk2[C177A, F80C, K278C] (Homo sapiens, UniProt P24941, C177A/F80C/K278C); test: Kinetic thiol consumption assay with mutant Cdk2 as model thiol; assay type: binding; set-up: unit not given here; settings: 500 μM ligand, 5 μM thiol, phosphate buffer pH 8
T8 construct: poly-histidine; made in house; host or cells: E. coli
Summary of the method: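 Model thiol: His-tagged human Cdk2 C177A/F80C/K278C (two engineered surface cysteines), E. coli-expressed, 5 μM in degassed phosphate buffer pH 8 with immobilized TCEP beads (2% v/v). Fluorescence (ex/em 380/470 nm) followed over time at room temperature, normalized to DMSO/thiol control. First-order decay fit gives rate constants.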

[9] = biological target: T9, Cdk2(N272C) (C177A) (Homo sapiens, UniProt P24941, C177A/N272C); test: Kinetic thiol consumption assay with Cdk2 mutant N272C; assay type: binding; set-up: key to Rate enhancement, Cdk2 N272: rate constant with Cdk2 ÷ rate constant with model thiol (fold); settings: for Rate enhancement, Cdk2 N272: Cdk2 N272, additional mutation C177A; for Rate constant with Cdk2 N272C: Protein: Cdk2, cysteine position N272C, additional mutation C177A, in h^-1
T9 construct: poly-histidine; made in house; host or cells: E. coli
Summary of the method: as §1

[10] = Kinetic thiol consumption assay with model thiol glutathione; assay type: physicochemical; set-up: Rate constant with glutathione (k(GSH)): unit not given here; settings: for Rate constant with glutathione (k(GSH)): 500 μM ligand, 5 μM thiol, phosphate buffer pH 8; for Rate constant with Glutathione: Protein: Glutathione, cysteine position NA, in h-1
Summary of the method: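 GSH 5 μM, degassed phosphate buffer pH 8, TCEP beads 2% v/v; acrylamide added; RT, 1 h; fluorescence ex/em 380/470 nm; normalized to DMSO/thiol control; k from first-order exponential decay fit.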

| Compound | Rate enhancement, Cdk2 S181C [1] | Rate enhancement, Cdk2 F80C [2] | Rate enhancement, Cdk2 S276C [3] | Rate constant with Cdk2 S276C [3] | Rate constant with Cdk2 (k(Cdk2)) [4] | Rate enhancement, Cdk2 WT [4] | Rate constant with Cdk2 WT [4] | k(Cdk2)/k(Cdk2_mut) rate enhancement [4] | k(Cdk2)/k(GSH) rate enhancement [4] | Rate enhancement, Cdk2 R122C [5] | Rate constant with Cdk2 R122C [5] | Rate enhancement, Cdk2 T182C [6] | Rate constant with Cdk2 T182C [6] | Rate enhancement, Cdk2 H71C [7] | Rate constant with Cdk2 H71C [7] | Rate constant with Cdk2[C177A, F80C, K278C] (k(Cdk2_mut)) [8] | Rate enhancement, Cdk2 N272 [9] | Rate constant with Cdk2 N272C [9] | Rate constant with glutathione (k(GSH)) [10] | Rate constant with Glutathione [10] | also measured |
| --- | --- | --- | --- | --- | --- | --- | --- | --- | --- | --- | --- | --- | --- | --- | --- | --- | --- | --- | --- | --- | --- |
| C=CC(=O)Nc1sc2c(c1C(=O)NC1CC1)CCC2 [CA-155] | 0.7715 | 0 | 0.6924 | 0.1839 | 0.743 | 2.797 | 0.743 | 0.5342 | 2.774 | 1.407 | 0.3736 | 2.615 | 0.6945 | 1.102 | 0.2926 | 1.391 | 0.715 | 0.1899 | 0.2678 | 0.2656 | Rate constant with Cdk2 S181C [1]: 0.2049 |
| C=CC(=O)NC1CC2CC1C1CCCC21 (centres unmarked) [CA-159] | 0 | 0 | 0.1634 | 0.001155 | 0.00232 | 0.5437 | 0.003842 | 1.79 | 0.5547 | 0.2488 | 0.001758 | 0.9382 | 0.00663 | 0.5333 | 0.003769 | 0.0013 | 0.2158 | 0.001525 | 0.00418 | 0.007067 | – |
| C=CC(=O)NC1(c2noc(C)n2)CCCCCC1 [CA-162] | 0.1273 | 0.05133 | 1.07 | 0.06352 | 0.02529 | 0.5566 | 0.03304 | 14.75 | 0.9863 | 0.1023 | 0.006071 | 6.607 | 0.3922 | 0.4092 | 0.02429 | 0.00171 | 0.3725 | 0.02211 | 0.02564 | 0.05936 | Rate constant with Cdk2 S181C [1]: 0.007555; Rate constant with Cdk2 F80C [2]: 0.003047 |
| C=CC(=O)N1C(=O)CC(c2ccccc2)N(C(=O)C=C)c2ccccc21 (centres unmarked) [CA-165-1] | 0 | 0.661 | 0 | – | 0.3945 | 1.092 | 5.676 | 0.3473 | 0.8877 | 0 | – | 0 | – | 0 | – | 1.136 | 0 | – | 0.4444 | 5.198 | Rate constant with Cdk2 F80C [2]: 3.436 |
| C=CC(=O)N(c1ccc2c(c1)OCCO2)C1CC1 [CA-167] | 0.343 | 0.289 | 0.3514 | 0.008135 | 0.01101 | 0.4756 | 0.01101 | 4.177 | 1.091 | 0.1363 | 0.003155 | 2.016 | 0.04668 | 0.1567 | 0.003628 | 0.00264 | 0.2702 | 0.006256 | 0.01009 | 0.02315 | Rate constant with Cdk2 S181C [1]: 0.00794; Rate constant with Cdk2 F80C [2]: 0.00669 |
